Two molecules from patent US20130123355A1, “Fatty acids and metal ions compositions and uses thereof” (priority 2011, published 2013) can be followed below.

The structures appear in SMILES notation.

The series is described as follows: Zn levels in cerebrospinal fluid of rats fed Zn compositions. The class given is in vivo, Sprague-Dawley rats. The settings on record: oral gavage, about 1 mg elemental zinc per kg per day for 3 weeks, compared with Zinc gluconate. As to the method: Sprague-Dawley rats are fed various […] compositions by oral gavage so as to provide about 1 mg elemental zinc per kg per day for 3 weeks. The zinc compositions include Zn-DHA, Zn-DHA-LysoPC and Zn-EPA. Control rats were administered equivalent molar amount of zinc gluconate. Cerebrospinal fluid is collected at the end of the treatment, and zinc is measured by atomic absorption spectroscopy.

As for `CC/C=C\C/C=C\C/C=C\C/C=C\C/C=C\C/C=C\CCC(=O)[O-].CC/C=C\C/C=C\C/C=C\C/C=C\C/C=C\C/C=C\CCC(=O)[O-].[Zn+2]` [Zn-DHA], the “CSF levels of Zn” value is “higher”.
Next, `CC/C=C\C/C=C\C/C=C\C/C=C\C/C=C\CCCC(=O)[O-].CC/C=C\C/C=C\C/C=C\C/C=C\C/C=C\CCCC(=O)[O-].[Zn+2]` [Zn-EPA]: “higher”.
